{"source": "patent US20250268848A1", "about": "“COMPOSITIONS COMPRISING ENDOSIDIN 2 FOR REDUCING SARS-COV-2 INFECTION” (HENRY FORD HEALTH SYSTEM, priority 2021, published 2025)", "key": {"[1]": {"test_system": "Hela cells", "conditions": "cited from earlier work"}, "[2]": {"test_system": "ACE2 translocation to the cell surface of CD14+ monocytes", "experiment": "Flow cytometry of ACE2 surface expression in PBMCs pre-treated with ES2 before R848 or LPS", "assay_type": "cell-based, human", "conditions": "PBMCs pre-treated with ES2 1-2 h, then R848 or LPS 4 h", "description": "Bars represent mean±SEM of biologically independent samples, (n=3/group for 40 μM ES2 condition; n=4/group for all other conditions).\nFor ex vivo stimulation assays analyzed by flow cytometry, fresh PBMCs were isolated from CPT tubes using a standard protocol. Briefly, whole blood cells were diluted with Ca^2+-free and Mg^2+-free PBS buffer (Corning, NY) containing 2% fetal bovine serum (FBS, R&D Systems, Minneapolis, MN) and 2 mM EDTA (VWR Life Science, Radnor, PA) and slowly overlaid onto Ficoll-Paque™ (GE healthcare, Chicago, IL) at 2:1 ratio by volume. The samples were centrifuged at RT for 20 min at 800×g with no braking. Next, the mononuclear cell layer at the plasma-Ficoll interface was moved into a new 50 ml tube and washed with PBS buffer and red blood cell lysis buffer at RT for 5 min. The isolated PBMCs were used on the day of isolation or placed at −80° C. for storage. Two million fresh or thawed PBMCs were transferred to each well of a round-bottom 96-well culture plate (Thermo Fisher Scientific) in 200 μL of RPMI medium containing 10% FBS. The thawed PBMCs were recovered for 2 h at 37° C. with 5% C02. […]\nFlow cytometry methods. […] All data were analyzed using FlowJo 10.5.3 (BO Biosciences). […]"}, "[3]": {"test_system": "PBMCs", "experiment": "Flow cytometry of ACE2 and TMPRSS2 cell surface expression in PBMCs stimulated ex vivo", "assay_type": "cell-based, human", "conditions": "mean±SEM", "description": "Mouse IgG1 antibodies were used as the isotype controls.\nPBMCs were ex vivo cultured with R848, LPS or medium alone for 4 hrs, 24 hrs, and 48 hrs. Representative flow cytometric analysis of surface expression of ACE2 and TMPRSS2 in cDC.\nPBMCs were ex vivo cultured with PMA plus ionomycin for 4 h. Representative flow cytometric analysis of surface expression of TMPRSS2 in CD4+, CD8+ and total T cells.\nFor ex vivo stimulation assays analyzed by flow cytometry, fresh PBMCs were isolated from CPT tubes using a standard protocol. Briefly, whole blood cells were diluted with Ca^2+-free and Mg^2+-free PBS buffer (Corning, NY) containing 2% fetal bovine serum (FBS, R&D Systems, Minneapolis, MN) and 2 mM EDTA (VWR Life Science, Radnor, PA) and slowly overlaid onto Ficoll-Paque™ (GE healthcare, Chicago, IL) at 2:1 ratio by volume. The samples were centrifuged at RT for 20 min at 800×g with no braking. Next, the mononuclear cell layer at the plasma-Ficoll interface was moved into a new 50 ml tube and washed with PBS buffer and red blood cell lysis buffer at RT for 5 min. The isolated PBMCs were used on the day of isolation or placed at −80° C. for storage. Two million fresh or thawed PBMCs were transferred to each well of a round-bottom 96-well culture plate (Thermo Fisher Scientific) in 200 μL of RPMI medium containing 10% FBS. The thawed PBMCs were recovered for 2 h at 37° C. with 5% C02. In some experiments, PBMCs were treated with different concentrations of ES2 (Sigma Aldrich) or 0.25% DMSO (the vehicle for ES2 at the highest concentration; ATCC, Manassas, VA) for 1-2 h during recovery stage. The fresh and recovered cells were then cultured with 1 μg/ml R848, LPS, or medium alone for 4 h. For TCR-independent T cell stimulation, PBMCs were cultured in RPMI medium containing 10% FBS in the presence of phorbol 12-myristate 13-acetate (PMA) (50 ng/ml) and ionomycin (1 μM) for a total of 4 h at 37° C. After incubation, the cells were washed with wash buffer in PBS containing 2% FBS and 1 mM EDTA prior to staining.\nFlow cytometry methods. Single-cell suspensions were centrifuged at 450×g for 7 min, resuspended in ice-cold staining buffer (1×PBS with 2% FBS), and placed in a 96-well round-bottom plate (Thermo Fisher Scientific). After incubation with human Fe receptor blocking solution (Biolegend, San Diego, CA) at 4° C. for 15 min, cells were stained with a mixture of fluorescent surface antibodies at 4° C. for 30 min. For intracellular staining, the cells were fixed with IC Fixation Buffer (eBiosciences™, Thermo Fisher Scientific) at 4° C. for 30 min followed by incubation with fluorescent intracellular antibody cocktail in 1× Intracellular Fixation & Permeabilization Buffer (eBiosciences™, Thermo Fisher Scientific) at 4° C. for 30 min. The full list of fluorescent antibodies used is in Table 1 below. DAPI was added to the unfixed cells with surface staining at a final concentration of 1 μg/ml immediately before sample acquisition. The stained samples were then acquired on a FACSCelesta™ flow cytometer (BO Biosciences) using BO FACSDiva software version 8.0.2 (BO Biosciences). All data were analyzed using FlowJo 10.5.3 (BO Biosciences).\nMethods. Flow cytometry and qRT-PCR were utilized as described in Example 1."}, "[4]": {"test_system": "blood myeloid cells", "experiment": "Mass cytometry (CyTOF) of surface ACE2 in whole blood myeloid cells stimulated ex vivo with R848", "assay_type": "cell-based, human", "conditions": "4 h ex vivo, COVID-19 patients and healthy controls, mean±SEM"}}, "data": [{"compound": "COc1cc(/C=N/NC(=O)c2cccc(F)c2)cc(I)c1O", "note": "[ES2, 3-fluoro-benzoic acid, (2E)-2-[(4-hydroxy-3-iodo-5-methoxyphenyl)methylene]hydrazide]", "values": [{"measurement": "recycling of endocytosed transferrin to the plasma membrane", "setting": "[1]", "value": "inhibits"}, {"measurement": "rapid translocation of ACE2 to the monocyte cell surface", "setting": "[2]", "value": "blocked"}]}, {"compound": "CCOCc1nc2c(N)nc3ccccc3c2n1CC(C)(C)O", "note": "[R848, resiquimod]", "values": [{"measurement": "ACE2+ TMPRSS2+ cDCs", "setting": "[3]", "value": "1.1%±0.21"}, {"measurement": "cell surface ACE2 localization in cDCs", "setting": "[3]", "value": "8.9%±0.98"}, {"measurement": "surface expression of TMPRSS2 in cDCs", "setting": "[3]", "value": "3.2%±0.87"}, {"measurement": "surface expression of ACE2 in CD14+ classic monocytes", "setting": "[4]", "value": "11.0±2.7", "unit": "%"}]}, {"compound": "lipopolysaccharide [LPS]", "values": [{"measurement": "ACE2+ TMPRSS2+ cDCs", "setting": "[3]", "value": "1.1%±0.21"}, {"measurement": "cell surface ACE2 localization in cDCs", "setting": "[3]", "value": "8.9%±0.98"}, {"measurement": "surface expression of TMPRSS2 in cDCs", "setting": "[3]", "value": "3.2%±0.87"}]}]}
